One series deals with T1, human NK1 receptor (Homo sapiens, UniProt P25103).
T1 construct: expressed in transfected cells; host or cells: 293T cells (RIKEN), transient transfection with pcDNA3.1(-) plasmid
As to the kind of experiment: Affinity for human NK1 receptor (125I-substance P receptor binding test, membrane fraction). The note with it: membrane fraction of human NK1 receptor-expressing 293T cells, room temperature 60 minutes, read-out: pIC50 (inverse logarithm of the concentration required for 50% inhibition of 125I-substance P binding) (converted). As for the experimental part:
Affinity for Human NK1 Receptor
(3) Measurement of Binding Affinity to Human NK1 Receptor
(3-1) Preparation of Membrane Fraction from Human NK1 Receptor-Expressing Cells
Human NK1 receptor-expressing cells were prepared in a 175 cm^2 culture flask (Nippon Becton Dickinson). The formation of a complex of the human NK1 receptor expression plasmid and Lipofectamine 2000 was performed by calculating the culture area ratio and increasing the scale of the method described in the above 2-4 by the ratio. The human NK1 receptor-expressing cells were collected in a buffer solution for the membrane fraction preparation (50 mM Tris (Wako Pure Chemical), 120 mM sodium chloride (Wako Pure Chemical Industries), 5 mM potassium chloride (Wako Pure Chemical Industries), 1 mM ethylenediaminetetraacetic acid (Sigma), 0.002 mg/mL chymostatin (Peptide Institute), 0.04 mg/bacitracin (Wako Pure Chemical Industries), 0.005 mg/mL phosphoramidon (Peptide Institute) and 0.5 mM phenylmethylsulfonyl fluoride (Wako Pure Chemical Industries), pH7.4) and centrifuged at 1,880 g for 10 minutes, and the cell sediment was suspended in the buffer solution for the membrane fraction preparation. After freezing and thawing the cells once, the cells were homogenized using a Dounce-type homogenizer (cooled on ice, 1000 rpm, 20 times). The homogenized cell suspension was centrifuged at 20,000 rpm for 10 minutes, and the supernatant was removed to obtain cell sediment. The cell sediment was suspended again in the buffer solution for the membrane fraction preparation and homogenized using a Dounce-type homogenizer (cooled on ice, 1000 rpm, 30 times). The cell suspension was centrifuged at 20,000 rpm for 10 minutes, and the supernatant was removed to obtain cell sediment. The same homogenization and centrifugation were repeated again, and final cell sediment was obtained. The final cell sediment was suspended in a buffer solution for the receptor binding test (50 mM Tris (Wako Pure Chemical Industries), 3 mM manganese chloride (Wako Pure Chemical Industries), 0.002 mg/mL chymostatin (Peptide Institute), 0.04 mg/bacitracin (Wako Pure Chemical Industries) and 0.02% bovine serum albumin (Sigma), pH 7.4), and the protein concentration was measured using BCA Protein Assay Kit (Pierce).
(3-2) Receptor Binding Test
The buffer solution for the receptor binding test was dispensed to the wells of a 96-well assay plate (Greiner) at 22.5 μL/well. DMSO solutions of a test compound, which were prepared at an 80-time higher concentration using 100% dimethyl sulfoxide (DMSO), were added to the wells at 2.5 μL/well (final concentrations of 1 nM to 100 nM), and the solutions were mixed. As a radiolabeled ligand, ^125I-substance P (Substance P, [^125I]Tyr^8-, PerkinElmer) was used. ^125I-substance P was diluted with the buffer solution for the receptor binding test to a concentration resulting in […] and added to the 96-well assay plate, and the solutions were mixed. The membrane fraction prepared from the human NK1 receptor-expressing cells was diluted with the buffer solution for the receptor binding test to a concentration resulting in 8 to 10 μg/well, suspended until the suspension became in such a homogenous state that the suspension could flow through a 27G injection needle smoothly and then added to the 96-well assay plate at 150 μL/well. Then, the plate was incubated at room temperature for 60 minutes while shaking the plate. […]

The target in the next series is T2, human CYP3A4 (Homo sapiens, UniProt P08684).
T2 construct: purchased BD Biosciences
T2 sequence (P08684 whole entry): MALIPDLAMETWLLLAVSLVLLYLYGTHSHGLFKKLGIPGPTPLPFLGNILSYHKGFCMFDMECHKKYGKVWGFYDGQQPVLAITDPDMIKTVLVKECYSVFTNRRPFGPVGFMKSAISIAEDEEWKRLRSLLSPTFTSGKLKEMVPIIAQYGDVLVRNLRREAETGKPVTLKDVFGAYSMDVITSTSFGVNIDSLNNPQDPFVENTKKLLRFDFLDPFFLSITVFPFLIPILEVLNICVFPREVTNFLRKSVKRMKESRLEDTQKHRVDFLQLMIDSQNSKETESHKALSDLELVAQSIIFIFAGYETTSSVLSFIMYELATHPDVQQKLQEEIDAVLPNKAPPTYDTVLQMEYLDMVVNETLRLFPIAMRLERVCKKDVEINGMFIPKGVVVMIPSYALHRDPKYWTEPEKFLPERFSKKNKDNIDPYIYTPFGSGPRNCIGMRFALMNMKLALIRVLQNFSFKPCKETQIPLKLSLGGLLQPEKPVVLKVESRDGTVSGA
The series is described as follows: Inhibitory effect on CYP3A4 (Luciferin-IPA). In kind it is in vitro ADME. The note with it: test compound 10 μM, 30-minutes pre-incubation, Luciferin-IPA 3 μM. As for the experimental part:
Inhibitory Effect on CYP3A4
The dimethyl sulfoxide (DMSO) solution of the test compound with a concentration 1000 times higher than the evaluation concentration was prepared, and a reaction solution was prepared by diluting the solution. Enzyme reaction was performed by incubating in a potassium phosphate buffer solution (pH 7.4) containing 1 μM to 10 μM test compound, 3.2 mM magnesium chloride, 0.2 pmol human CYP3A4 (BD Biosciences), 0.5 mM reduced nicotinamide adenine dinucleotide phosphate (NADPH) and 3 μM Luciferin-IPA (Promega) at 37° C. for 10 minutes. The volume of the reaction solution was 50 μL/well. The 30-minutes pre-incubation group was incubated at 37° C. for 30 minutes before adding the substrate, the Luciferin-IPA solution (12.5 μL/well). At the end of the enzyme reaction, 50 μL/well of a Luciferin detection reagent (Promega) was added to the wells, and the plate was left at room temperature for 20 minutes. Then, the emission intensities were measured with Infinite M1000 (TECAN), and the enzyme activities (%) relative to the value of the group to which the test compound was not added. As a comparative example, aprepitant, which is an NK1 receptor antagonist, was tested in the same manner.
Test was measured by the above test method, and the results are shown in Table 9 when the concentration of the test compound was 10 μM. In the table, Ex. No. means the Example number, and Pre-incubation (30 min) (%) means the enzyme activities (%) of the 30-minutes pre-incubation groups using the test compounds.

T1 sequence (P25103 whole entry): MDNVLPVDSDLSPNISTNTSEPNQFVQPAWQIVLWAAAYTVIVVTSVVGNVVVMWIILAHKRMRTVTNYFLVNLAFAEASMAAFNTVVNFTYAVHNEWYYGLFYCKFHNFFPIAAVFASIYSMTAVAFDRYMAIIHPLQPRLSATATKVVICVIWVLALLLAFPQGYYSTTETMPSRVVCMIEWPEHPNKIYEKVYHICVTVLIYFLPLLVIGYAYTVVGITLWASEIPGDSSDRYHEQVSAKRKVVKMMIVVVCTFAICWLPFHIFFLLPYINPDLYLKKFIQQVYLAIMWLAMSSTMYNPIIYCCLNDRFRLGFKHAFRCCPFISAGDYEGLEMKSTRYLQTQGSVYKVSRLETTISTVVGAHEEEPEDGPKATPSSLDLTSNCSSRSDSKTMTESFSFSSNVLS

As to `Cc1cc(F)ccc1[C@H]1CN(C[C@H]2CC[C@@H](CC(=O)O)CC2)CCN1C(=O)N(C)[C@H](C)c1cc(C(F)(F)F)cc(C(F)(F)F)c1` [Example 4, cis-{4-[(S)-4-{[(R)-1-(3,5-Bistrifluoromethylphenyl)ethyl]methylcarbamoyl}-3-(4-fluoro-2-methylphenyl)piperazin-1-ylmethyl]cyclohexyl}acetic acid], at human NK1 receptor, the IC50 was 0.851 nM. Also, on human CYP3A4, the “Preincubation (30 min) (%) (enzyme activities relative to group without test compound)” value was determined as 18%.

Consider `Cc1cc(F)ccc1[C@H]1CN(C[C@H]2CC[C@H](CC(=O)O)CC2)CCN1C(=O)N(C)[C@H](C)c1cc(C(F)(F)F)cc(C(F)(F)F)c1` [Example 5, trans-{4-[(S)-4-{[(R)-1-(3,5-Bistrifluoromethylphenyl)ethyl]methylcarbamoyl}-3-(4-fluoro-2-methylphenyl)piperazin-1-ylmethyl]cyclohexyl}acetic acid], for which the IC50 on human NK1 receptor was 0.851 nM. Besides, the “Preincubation (30 min) (%) (enzyme activities relative to group without test compound)” value on human CYP3A4 worked out at 21%.
